Data taken from US11028078B2 (The Johns Hopkins University, priority 2011, dated 2021).

How the values were obtained:
[1] = tested on: MB cultures derived from Ptch−/+; p53−/− mice; assay: Medulloblastoma (MB) proliferation assay; assay type: cell-based, mouse; conditions: for MB Proliferation (IC50/IC50 Itra): mouse medulloblastoma cultures, 96 h, relative to itraconazole; for inhibition of MB proliferation: FIG. 9A
Description: These cultures were derived from Ptch^−/+; p53^−/− mice that spontaneously develop medulloblastoma associated with ligand independent Hh pathway activation.
MB cultures were derived from mouse Ptch^−/+; p53^−/− MB grown as hind-flank allografts in nude mice (Harlan). Briefly, tumors were mechanically disrupted and made into single cell suspensions by two passages through a 70 μm nylon filter. Cells were pelleted by centrifugation and resuspended in PBS pH 7.4 twice. The cell suspension was then subjected to centrifugation at 1000×g for 25 min over a ficoll gradient. The viable cell layer formed at the ficoll boundary was then collected, suspended in PBS, and pelleted by centrifugation. The resulting pellet was then suspended and cultured as “neurospheres” in Neurobasal Media-A supplemented with retinoic acid deficient B-27 extract (NBMedia). Cells were cultured for three passages, with neurospheres disaggregated using Accumax (Innovative Cell Technologies) between passages.
Cultured MB neurospheres were disaggregated as described and 1×10^4 cells were seeded into wells of a 96-well assay plate in NBMedia and exposed to multiple analogue concentrations: Relative cell numbers following a 96-h incubation were quantified by CellTiter 96® AQueous One Solution Cell Proliferation Assay (Promega) per manufacturer's recommendations using a SpectraMax M2e spectrophotometer and SoftMax Pro software (Molecular Devices). Data was analyzed using Prism5 (GraphPad Software) and IC50 and IC90 values were determined from dose-response curves fitted to mean corrected absorbance normalized to control treatment.

VEGFR2 = VEGFR2 glycosylation in HUVEC (Western blot scoring); assay type: cell-based, human; conditions: for Glycosylation (2 μM dose): VEGFR2 hypoglycosylation score in HUVEC, 24 h; for VEGFR2 glycosylation defect: data not shown
Description: VEGFR2 hypoglycosylation was scored either robust (++), intermediate (+), or absent (−) (FIG. 6).
HUVEC were seeded at 5×10^4 per well of a 6-well plate in 3 mL of media. After an overnight recovery, the media was replaced with 2 mL fresh media and the analogs were added from 200× stocks in DMSO. Following a 24-h incubation, the media was aspirated and 2×SDS sample buffer was added to the cells which were incubated on ice for 10 min and then boiled for 10 min. […] Following three washes in TBS-T, the membrane was incubated with anti-rabbit horseradish peroxidase conjugated IgG (GE Healthcare) (1:5000-1:10000 dilution) in 1% BSA in TBS-T. The membranes were washed three times in TBS-T, incubated for 1-5 minutes with ECL substrate (Immobilon Wester, Milipore) and visualized (Kodak Image Staion 440 CF).

Gli1 transcript = assay: Quantification of Gli1 transcript by TaqMan analysis in MB cells (Hh pathway); assay type: cell-based, mouse; conditions: for Gli I Inhibition (IC90 Prolif. dose): Gli1 transcript fold induction score, MB cells exposed 24 h at the IC90 for MB proliferation; for inhibition of Gli1 transcript levels: established MB cultures, FIG. 9B
Description: Inhibitors of the Hh pathway are known to inhibit MB cell proliferation. However, MB cell proliferation is also affected by drugs with targets other than Hh signaling.
Following drug exposure, cells were washed in PBS and pelleted by centrifugation at 300×g. Cell pellets were lysed in Trizol reagent (Invitrogen). Total RNA was separated and collected in the aqueous phase following centrifugation of lysate in the presence of chloroform. Total RNA was ethanol precipitated and purified over RNeasy Mini Kit (Qiagen) filter columns per manufacturer's recommendations. Transcript levels were quantified using gene-specific TaqMan primer/probe sets and the StepOne Plus Real-Time PCR system (Applied Biosystems) on cDNA reverse transcribed using the QuantiTect Reverse Transcription Kit (Qiagen) per manufacturers' recommendations. Results were quantified using StepOne Plus software v2.1 (Applied Biosystems) and were expressed as fold induction relative to control samples using the A ΔCt (2^−ΔΔCt) method with actin as an internal control. The primer/probe set (Applied Biosystems) for TaqMan PCR for mouse Gli-1 was Mm00494645_m1, and for mouse actin was Mm00607939_s1.

HUVEC = HUVEC proliferation assay ([3H]thymidine incorporation); assay type: cell-based, human; conditions: for Proliferation (IC50/IC50 Itra) / Proliferation (EC50/IC50 Itra) / IC50: HUVEC; for Proliferation (IC50/IC50 Itra): IC50 of analog relative to IC50 of itraconazole; for Proliferation (EC50/IC50 Itra): footnote g: EC50 of analog relative to IC50 of itraconazole; for IC50: Homo sapiens, Table 5, read-out: Activity in HUVEC Proliferation IC50; for inhibition of HUVEC proliferation: data not shown
Description: The activity of the analogs against HUVEC proliferation, an in vitro proxy for angiogenesis inhibition (Table 3) was analyzed. […]
Pooled HUVEC (Lonza) were grown in EGM-2 bullet kit media (Lonza) and used at passage eight or lower. The proliferation assays were conducted as previously described (Nacev, B.; Low, W. K.; Huang, Z.; Su, T.; Su, Z.; Alkuraya, H.; Kasuga, D.; Sun, W.; Trager, M.; Braun, M.; Fischer, G.; Zhang, K.; Liu, J. O., Acalcineurin-independent mechanism of angiogenesis inhibition by anon-immunosuppressive Cyclosporin Aanalog. J. Pharmacol. Exp. Ther. 2011, DOI:10.1124/jpet.111.18085).

`CC1(CCn2ncn(-c3ccc(N4CCN(c5ccc(OCC6COC(Cn7cncn7)(c7ccc(Cl)cc7Cl)O6)cc5)CC4)cc3)c2=O)N=N1` [Compound 7w, cis-(2S,4R)-4-[4-[4-[4-[[2-(2,4-Dichlorophenyl)-2-(1H-1,2,4-triazol-1-ylmethyl)-1,3-dioxolan-4-yl]methoxy]phenyl]-lpiperazinyl]phenyl]-2,4-dihydro-2-(2-(3-methyl-3H-diazirin-3-yl)ethyl)-3H-1,2,4-triazol-3-one] was tested, and the “MB Proliferation (IC50/IC50 Itra)” value [1] was 1.32, the “Glycosylation (2 μM dose)” value (VEGFR2) was “+” and the “Gli I Inhibition (IC90 Prolif. dose)” value (Gli1 transcript) was “+ (0.16 to 0.44)”. The “Proliferation (IC50/IC50 Itra)” value (HUVEC) was greater than 13.8.
In the case of `CCCn1ncn(-c2ccc(N3CCN(c4ccc(OC[C@@H]5CO[C@@](Cn6cncn6)(c6ccc(Cl)cc6Cl)O5)cc4)CC3)cc2)c1=O` (relative stereo) [Compound 7c, cis-(2S,4R)-4-[4-[4-[4-[[2-(2,4-Dichlorophenyl)-2-(1H-1,2,4-triazol-1-ylmethyl)-1,3-dioxolan-4-yl]methoxy]phenyl]-lpiperazinyl]phenyl]-2,4-dihydro-2-propyl-3H-1,2,4-triazol-3-one], the “MB Proliferation (IC50/IC50 Itra)” value [1] is reported as 1.01, the “Glycosylation (2 μM dose)” value (VEGFR2) is reported as “+” and the “Gli I Inhibition (IC90 Prolif. dose)” value (Gli1 transcript) is reported as “++ (≤0.15)”. The “Proliferation (IC50/IC50 Itra)” value (HUVEC) was 1.06.
With `O=c1n(-c2ccc(N3CCN(c4ccc(OCC5COC(Cn6cncn6)(c6ccc(Cl)cc6Cl)O5)cc4)CC3)cc2)cnn1CCCCCCc1ccccc1` [Compound 7n, cis-(2S,4R)-4-[4-[4-[4-[[2-(2,4-Dichlorophenyl)-2-(1H-1,2,4-triazol-1-ylmethyl)-1,3-dioxolan-4-yl]methoxy]phenyl]-lpiperazinyl]phenyl]-2,4-dihydro-2-(6-phenylhexyl)-3H-1,2,4-triazol-3-one] the “MB Proliferation (IC50/IC50 Itra)” value [1] was 0.69, the “Glycosylation (2 μM dose)” value (VEGFR2) was “−” and the “Gli I Inhibition (IC90 Prolif. dose)” value (Gli1 transcript) was “++ (≤0.15)”. The “Proliferation (EC50/IC50 Itra)” value (HUVEC) was 1.45^g.
With `CCCCCCCCn1ncn(-c2ccc(N3CCN(c4ccc(OCC5COC(Cn6cncn6)(c6ccc(Cl)cc6Cl)O5)cc4)CC3)cc2)c1=O` [Compound 7m, cis-(2S,4R)-4-[4-[4-[4-[[2-(2,4-Dichlorophenyl)-2-(1H-1,2,4-triazol-1-ylmethyl)-1,3-dioxolan-4-yl]methoxy]phenyl]-piperazinyl]phenyl]-2,4-dihydro-2-(n-octyl)-3H-1,2,4-triazol-3-one] the “MB Proliferation (IC50/IC50 Itra)” value [1] was 0.67, the “Glycosylation (2 μM dose)” value (VEGFR2) was “−” and the “Gli I Inhibition (IC90 Prolif. dose)” value (Gli1 transcript) was “++ (≤0.15)”. For the same molecule, the “Proliferation (EC50/IC50 Itra)” value (HUVEC) was 2.24^g.
In the case of `CC(C)Cn1ncn(-c2ccc(N3CCN(c4ccc(OC[C@@H]5CO[C@@](Cn6cncn6)(c6ccc(Cl)cc6Cl)O5)cc4)CC3)cc2)c1=O` (relative stereo) [Compound 7f, cis-(2S,4R)-4-[4-[4-[4-[[2-(2,4-Dichlorophenyl)-2-(H,2,4-triazol-1-ylmethyl)-1,3-dioxolan-4-yl]methoxy]phenyl]-lpiperazinyl]phenyl]-2,4-dihydro-2-isobutyl-3H-1,2,4-triazol-3-one], the “MB Proliferation (IC50/IC50 Itra)” value [1] is reported as 0.86, the “Glycosylation (2 μM dose)” value (VEGFR2) is reported as “++” and the “Gli I Inhibition (IC90 Prolif. dose)” value (Gli1 transcript) is reported as “− (≥0.45)”. For the same molecule, the “Proliferation (IC50/IC50 Itra)” value (HUVEC) was 1.32.
For `CCC(C)n1ncn(-c2ccc(N3CCN(c4ccc(OCC5CO[C@](Cn6cncn6)(c6ccc(Cl)cc6Cl)O5)cc4)CC3)cc2)c1=O` (some centres unmarked) [Compound 46b], the IC50 (HUVEC) was 0.236 µM.
For HhAntag [reference compound], the “inhibition of MB proliferation” value [1] was “Dose-dependent inhibition” and the “inhibition of Gli1 transcript levels” value (Gli1 transcript) was “Dose-dependent inhibition”.
`O=c1n(-c2ccc(N3CCN(c4ccc(OCC5COC(Cn6cncn6)(c6ccc(Cl)cc6Cl)O5)cc4)CC3)cc2)cnn1CC1CCCC1` [Compound 7l, cis-(2S,4R)-4-[4-[4-[4-[[2-(2/l-Dichlorophenyl)-2-(1H-1,2,4-triazol-1-ylmethyl)-1,3-dioxolan-4-yl]methoxy]phenyl]-lpiperazinyl]phenyl]-2,4-dihydro-2-(1-cyclopentylmethyl)-3H-1,2,4-triazol-3-one] was tested, and the “MB Proliferation (IC50/IC50 Itra)” value [1] was 0.50, the “Glycosylation (2 μM dose)” value (VEGFR2) was “++” and the “Gli I Inhibition (IC90 Prolif. dose)” value (Gli1 transcript) was “+ (0.16 to 0.44)”. The “Proliferation (IC50/IC50 Itra)” value (HUVEC) was 0.50.
`O=C(c1ccccc1)c1ccc(OCCCCCCn2ncn(-c3ccc(N4CCN(c5ccc(OCC6COC(Cn7cncn7)(c7ccc(Cl)cc7Cl)O6)cc5)CC4)cc3)c2=O)cc1` [Compound 7q, cis-(2S,4R)-4-[4-[4-[4-[[2-(2,4-Dichlorophenyl)-2-(1H-1,2,4-triazol-1-ylmethyl)-1,3-dioxolan-4-yl]methoxy]phenyl]-piperazinyl]phenyl]-2,4-dihydro-2-(6-(4-benzoylphenoxy)hexyl)-3H-1,2,4-triazol-3-one] was tested, and the “MB Proliferation (IC50/IC50 Itra)” value [1] was 0.8, the “Glycosylation (2 μM dose)” value (VEGFR2) was “−” and the “Gli I Inhibition (IC90 Prolif. dose)” value (Gli1 transcript) was “− (≥0.45)”.
“cis-(2R,4S)-4-[4-[4-[4-[[2-(2,4-Dichlorophenyl)-2-(1H-1,2,4-triazol-1-ylmethyl)-1,3-dioxolan-4-yl]methoxy]phenyl]-lpiperazinyl]phenyl]-2,4-dihydro-2-(pent-4-ynyl)-3H-1,2,4-triazol-3-one [Compound 7r]” was tested, and the “MB Proliferation (IC50/IC50 Itra)” value [1] was 0.71, the “Glycosylation (2 μM dose)” value (VEGFR2) was “−” and the “Gli I Inhibition (IC90 Prolif. dose)” value (Gli1 transcript) was “++ (≤0.15)”. The “Proliferation (IC50/IC50 Itra)” value (HUVEC) was 0.14.
`CC/C=C\CCn1ncn(-c2ccc(N3CCN(c4ccc(OCC5COC(Cn6cncn6)(c6ccc(Cl)cc6Cl)O5)cc4)CC3)cc2)c1=O` [Compound 7t, cis-(2S,4R)-4-[4-[4-[4-[[2-(2,4-Dichlorophenyl)-2-(1H-1,2,4-triazol-1-ylmethyl)-13-dioxolan-4-yl]methoxy]phenyl]-lpiperazinyl]phenyl]-2,4-dihydro-2-((Z)-hex-3-enyl)-3H-1,2,4-triazol-3-one] was tested, and the “MB Proliferation (IC50/IC50 Itra)” value [1] was 0.94, the “Glycosylation (2 μM dose)” value (VEGFR2) was “−” and the “Gli I Inhibition (IC90 Prolif. dose)” value (Gli1 transcript) was “++ (≤0.15)”. The “Proliferation (IC50/IC50 Itra)” value (HUVEC) was 0.73.
For `CS(=O)(=O)c1ccc(C(=O)Nc2ccc(Cl)c(-c3ccccn3)c2)c(Cl)c1` [GDC-0449, reference compound], the “inhibition of MB proliferation” value [1] was “Dose-dependent inhibition” and the “inhibition of Gli1 transcript levels” value (Gli1 transcript) was “Dose-dependent inhibition”.
`CC(C)N1CCN(c2ccc(OCC3COC(Cn4cncn4)(c4ccc(Cl)cc4Cl)O3)cc2)CC1` (centres unmarked) [terconazole, reference compound] was tested, and the “VEGFR2 glycosylation defect” value (VEGFR2) was “fail to induce the VEGFR2 glycosylation defect” and the “inhibition of HUVEC proliferation” value (HUVEC) was “do not inhibit proliferation”.
Work on `CCC(C)n1ncn(-c2ccc(N3CCN(c4ccc(OCC5CO[C@@](Cn6cncn6)(c6ccc(Cl)cc6Cl)O5)nc4)CC3)c(C)c2)c1=O` (some centres unmarked) [Compound 47a] yielded an IC50 (HUVEC) of 0.155 µM.
`CC[C@@H](C)n1ncn(-c2ccc(N3CCN(c4ccc(OCC5CO[C@@](Cn6cncn6)(c6ccc(Cl)cc6Cl)O5)cc4)CC3)cc2)c1=O` (some centres unmarked) [Itraconazole C, reference compound] was tested, and the IC50 (HUVEC) was 0.152 µM.
For `CC(=O)N1CCN(c2ccc(OCC3COC(Cn4ccnc4)(c4ccc(Cl)cc4Cl)O3)cc2)CC1` (centres unmarked) [ketoconazole, reference compound], the “VEGFR2 glycosylation defect” value (VEGFR2) was “fail to induce the VEGFR2 glycosylation defect” and the “inhibition of HUVEC proliferation” value (HUVEC) was “do not inhibit proliferation”.
For `CCC(C)n1ncn(-c2ccc(N3CCN(c4ccc(OCC5CO[C@@](Cn6cncn6)(c6ccc(Cl)cc6Cl)O5)cc4)CC3)cc2)c1=O` (some centres unmarked) [Compound 46a], the IC50 (HUVEC) was 0.155 µM.
